Where “and” joins values, the source holds several entries; their conditions need not be identical. Equal entries are not always repeated.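 Following 48 hours of exposure in 96-well plates, responses at five concentrations were used to interpolate endpoints linearly. Abbreviation: GI50, concentration required for 50% inhibition of growth. TGI: concentration producing complete growth inhibition.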 Bounds are passed on as bounds.

By TGI is commonly meant the concentration at which net growth stops. Higher therefore signals lower sensitivity of the cells. The GI50 is the concentration at which growth is held to half of that of the control.

Some test systems named below: TK-10 renal; SN12C renal; SK-MEL-5 melanoma; NCI-H460 lung; RXF 393 renal; SF-268 CNS; HT29 colon; MDA-MB-435; HL-60(TB) leukemia; NCI-H226 lung.
Experiment in all cases: DTP human tumour cell line panel, 48 h

In the case of `CC(C)(C)[Si](C)(C)OCC1OC(n2cnc3c(N)ncnc32)C(O)C1O` (stereo unspecified), the TGI was greater than 100 µM in the assay with TK-10 renal; greater than 100 µM in the assay with SN12C renal; 89.5 µM with SK-MEL-5 melanoma; greater than 100 µM in the assay on NCI-H460 lung; greater than 100 µM with RXF 393 renal; greater than 100 µM with SF-268 CNS. The TGI with HT29 colon, in the assay with MDA-MB-435, with HL-60(TB) leukemia and in the assay with NCI-H226 lung was greater than 100 µM throughout.

With `Nc1ccn([C@@H]2C(F)=C(CO)[C@@H](O)[C@H]2O)c(=O)n1`, the GI50 in the assay with TK-10 renal was 6.73 µM; in the assay with SN12C renal it was 0.448 µM; in the assay on SK-MEL-5 melanoma, 4.37 µM; with NCI-H460 lung it was 0.384 µM; in the assay with RXF 393 renal, 8.04 µM; with SF-268 CNS it was 1.53 µM. Moreover, the GI50 in the assay with HT29 colon is 0.625 µM; in the assay with MDA-MB-435 it was 0.846 µM; with HL-60(TB) leukemia it was 0.889 µM; in the assay with NCI-H226 lung, 11.5 µM. For the same compound, the TGI in the assay on TK-10 renal, with SN12C renal, in the assay on SK-MEL-5 melanoma, in the assay with NCI-H460 lung, in the assay on RXF 393 renal and in the assay with SF-268 CNS was greater than 100 µM throughout. Besides, the TGI in the assay with HT29 colon, in the assay on MDA-MB-435, in the assay on HL-60(TB) leukemia and with NCI-H226 lung was greater than 100 µM in each case.

With `COc1ccccc1/C=C\C(=O)c1ccccc1`, the GI50 was 12.5 µM with TK-10 renal; 9.36 µM with SN12C renal; 5.01 µM in the assay on SK-MEL-5 melanoma; 5.75 µM in the assay on NCI-H460 lung; 13 µM with RXF 393 renal; 13.1 µM with SF-268 CNS. In addition, the GI50 in the assay with HT29 colon is 3.9 µM; in the assay with MDA-MB-435, 4.27 µM; with HL-60(TB) leukemia it was 5.06 µM; in the assay with NCI-H226 lung it was 14.5 µM. In addition, the TGI in the assay on TK-10 renal amounted to 25.2 µM; with SN12C renal, 22.1 µM; in the assay on SK-MEL-5 melanoma, 17 µM; in the assay with NCI-H460 lung, 18.4 µM; with RXF 393 renal it was 27.4 µM; in the assay with SF-268 CNS, 27 µM. The TGI was 17.3 µM with HT29 colon, 16.5 µM with MDA-MB-435, 45.6 µM in the assay on HL-60(TB) leukemia and 29.8 µM in the assay on NCI-H226 lung.

On to `Fc1c[c-]c(-c2ccccn2)c(F)c1.[CH3-].[Pt+2].c1ccc(P(C[PH+](c2ccccc2)c2ccccc2)c2ccccc2)cc1`, for which the GI50 is 0.991 µM with TK-10 renal; 0.502 µM in the assay with SN12C renal; 0.714 µM in the assay on SK-MEL-5 melanoma; 0.591 µM with NCI-H460 lung; 0.702 µM with RXF 393 renal; 0.86 µM with SF-268 CNS. The GI50 with HT29 colon is 0.5 µM; in the assay on MDA-MB-435 it was 0.795 µM; with HL-60(TB) leukemia, 0.38 µM; with NCI-H226 lung, 0.559 µM. Further, the TGI in the assay on TK-10 renal came out at 3.39 µM; with SN12C renal, 1.77 µM; with SK-MEL-5 melanoma, 1.37 µM; in the assay on NCI-H460 lung, 1.54 µM; in the assay with RXF 393 renal, 1.49 µM; in the assay on SF-268 CNS, 6.88 µM. Further, the TGI with HT29 colon is 3.73 µM; in the assay on MDA-MB-435, 2.08 µM; in the assay with HL-60(TB) leukemia, 1.56 µM; in the assay on NCI-H226 lung, 2.09 µM.

As for `COc1ccc2cc(-c3c(-c4ccncc4)nc(-c4ccc(S(C)=O)cc4C)n3C)ccc2c1` (stereo unspecified), the GI50 in the assay on TK-10 renal is 7.62 µM; in the assay on SN12C renal it was 15.7 µM; with SK-MEL-5 melanoma, 7.58 µM; in the assay with NCI-H460 lung, 24.6 µM; in the assay with RXF 393 renal it was greater than 24.2 µM; in the assay on SF-268 CNS, greater than 25 µM. Moreover, the GI50 with HT29 colon was 10.6 µM; in the assay on MDA-MB-435, 11.2 µM; in the assay on HL-60(TB) leukemia it was 9.61 µM; with NCI-H226 lung it was greater than 20.5 µM. The TGI with TK-10 renal was greater than 25 µM; in the assay with SN12C renal, greater than 25 µM; with SK-MEL-5 melanoma it was greater than 21.6 µM; in the assay with NCI-H460 lung, greater than 25 µM; in the assay with RXF 393 renal, greater than 25 µM; in the assay with SF-268 CNS, greater than 25 µM. Besides, the TGI in the assay with HT29 colon, with MDA-MB-435, in the assay on HL-60(TB) leukemia and in the assay on NCI-H226 lung was greater than 25 µM throughout.

Take `COc1ccc(-c2cc(/C=C/C(=O)c3cc(OC)c(OC)c(OC)c3)[nH]n2)cc1OC`: the GI50 in the assay with TK-10 renal was 3.27 µM; in the assay with SN12C renal, 1.77 µM; in the assay on SK-MEL-5 melanoma it was 1.58 µM; with NCI-H460 lung, 1.04 µM; in the assay with RXF 393 renal, 1.53 µM; in the assay on SF-268 CNS it was 1.68 µM. In addition, the GI50 is 1.3 µM in the assay on HT29 colon, 1.78 µM in the assay with MDA-MB-435, 1.69 µM in the assay with HL-60(TB) leukemia and 1.93 µM in the assay with NCI-H226 lung. The TGI with TK-10 renal was 11.8 µM; with SN12C renal it was 3.83 µM; with SK-MEL-5 melanoma it was 2.93 µM; with NCI-H460 lung, 3.6 µM; in the assay on RXF 393 renal, 3.16 µM; in the assay on SF-268 CNS, 3.9 µM. Besides, the TGI in the assay with HT29 colon came out at 2.73 µM; with MDA-MB-435 it was 4.05 µM; with HL-60(TB) leukemia, 14.8 µM; in the assay on NCI-H226 lung it was 7.91 µM.

Consider `Cc1cc(NC(=O)NC(=O)c2ccccc2N(C)C)ccc1Oc1ncc(Br)cn1`, for which the GI50 was 0.984 µM in the assay with TK-10 renal; 0.578 µM in the assay on SN12C renal; 0.343 µM with NCI-H460 lung; 0.242 µM with RXF 393 renal; 0.0879 µM in the assay on HL-60(TB) leukemia; 1.88 µM with NCI-H226 lung. Besides, the TGI in the assay on TK-10 renal is greater than 68.1 µM; in the assay on SN12C renal, greater than 100 µM; with SK-MEL-5 melanoma, 4.11 µM; with NCI-H460 lung, 55.5 µM; with RXF 393 renal, 0.698 µM and 6.37 µM; in the assay with SF-268 CNS it was greater than 68.1 µM. In addition, the TGI in the assay on HT29 colon is 15.2 µM; in the assay on MDA-MB-435, 2.84 µM; in the assay with HL-60(TB) leukemia it was 0.388 µM and 0.981 µM; in the assay with NCI-H226 lung it was greater than 90 µM.

On to `C=CC(=O)Nc1cccc(Nc2nc(Nc3ccc(OCCOC(F)F)cc3)ncc2F)c1`, for which the GI50 in the assay with TK-10 renal is 0.515 µM; with SN12C renal it was 2.54 µM; in the assay with SK-MEL-5 melanoma it was 3.74 µM; in the assay on NCI-H460 lung, 2.74 µM; with RXF 393 renal, 1.09 µM; with SF-268 CNS, 2.25 µM. Moreover, the GI50 in the assay on HT29 colon is 2.67 µM; in the assay with MDA-MB-435, 2.21 µM; with HL-60(TB) leukemia, 2.02 µM; with NCI-H226 lung, 0.52 µM. Further, the TGI in the assay with TK-10 renal was 2.93 µM; in the assay on SN12C renal, 16.2 µM; in the assay on SK-MEL-5 melanoma, 15.1 µM; with NCI-H460 lung, 35.6 µM; in the assay on RXF 393 renal it was 4.42 µM; in the assay on SF-268 CNS, 17.6 µM. The TGI came out at 13.5 µM in the assay on HT29 colon, 7.22 µM with MDA-MB-435, 10.4 µM with HL-60(TB) leukemia and 11.2 µM in the assay with NCI-H226 lung.

As for `O=C(Nc1cc(S(=O)(=O)c2ccc(Cl)cc2)ccc1Cl)c1cc(I)cc(I)c1O`, the GI50 was 18.1 µM in the assay on TK-10 renal; 16.1 µM in the assay with SN12C renal; 14.9 µM in the assay with SK-MEL-5 melanoma; 15.2 µM in the assay on NCI-H460 lung; 15.1 µM in the assay on RXF 393 renal; 18.5 µM in the assay with SF-268 CNS. Moreover, the GI50 with HT29 colon was 16.4 µM; in the assay with MDA-MB-435 it was 17.4 µM; in the assay with HL-60(TB) leukemia, 14.5 µM; in the assay with NCI-H226 lung, 26.8 µM. Moreover, the TGI came to 34.2 µM with TK-10 renal; 34.8 µM in the assay on SN12C renal; 28.3 µM in the assay with SK-MEL-5 melanoma; 38.5 µM in the assay with NCI-H460 lung; 35.5 µM in the assay on RXF 393 renal; 40.4 µM in the assay on SF-268 CNS. The TGI is 30.2 µM with HT29 colon, 37.8 µM with MDA-MB-435, 31.6 µM in the assay with HL-60(TB) leukemia and 69.1 µM in the assay on NCI-H226 lung.

Turning to `O=C(Nc1ccccc1O)c1ccc(CNC(=O)c2ccsc2Nc2ccnc(C(F)(F)F)c2)cc1`, the GI50 in the assay on TK-10 renal was 2.1 µM; in the assay on SN12C renal, 4.13 µM; with SK-MEL-5 melanoma it was 1.69 µM; in the assay with NCI-H460 lung it was 2.38 µM; in the assay on RXF 393 renal it was 1.93 µM; in the assay on SF-268 CNS it was 2.69 µM. Further, the GI50 with HT29 colon is 3.05 µM; in the assay with MDA-MB-435 it was 2.19 µM; in the assay on HL-60(TB) leukemia it was 2.86 µM; with NCI-H226 lung, 2.48 µM. Further, the TGI was 9.33 µM with TK-10 renal; 79.3 µM in the assay on SN12C renal; 4.07 µM in the assay on SK-MEL-5 melanoma; 11.4 µM in the assay on NCI-H460 lung; 4.82 µM with RXF 393 renal; 15.1 µM in the assay with SF-268 CNS. Moreover, the TGI is 12.6 µM in the assay with HT29 colon, 6.54 µM in the assay with MDA-MB-435, 9.32 µM with HL-60(TB) leukemia and 30.9 µM with NCI-H226 lung.

For `CCc1cccc(CC)c1/C=C/c1cncc(C(=O)NC)c1`, the GI50 with TK-10 renal was greater than 18.2 µM; in the assay with SN12C renal, 10.8 µM; with SK-MEL-5 melanoma, 5.71 µM; in the assay with NCI-H460 lung it was 9.97 µM; with RXF 393 renal, 5.87 µM; in the assay with SF-268 CNS it was 15.6 µM. Moreover, the GI50 is 8.79 µM in the assay with HT29 colon, 2.85 µM with MDA-MB-435, greater than 13.6 µM with HL-60(TB) leukemia and 17.2 µM in the assay with NCI-H226 lung. Further, the TGI in the assay on TK-10 renal was greater than 25 µM; in the assay with SN12C renal it was greater than 25 µM; in the assay on SK-MEL-5 melanoma, greater than 16.2 µM; with NCI-H460 lung it was greater than 25 µM; in the assay on RXF 393 renal, 24.8 µM; with SF-268 CNS, greater than 25 µM. In addition, the concentration for total growth inhibition (TGI) is greater than 25 µM in the assay with HT29 colon, 10.5 µM with MDA-MB-435, greater than 23.8 µM with HL-60(TB) leukemia and greater than 25 µM in the assay on NCI-H226 lung.
